Experiments:
Type in all cases: in vivo, Sprague Dawley rats
[1] = system: rats with diabetic nephropathy; experiment: Diabetic nephropathy in rats (left nephrectomy + streptozocin); conditions: p.o. 10 mg/kg; for creatinine: serum
Experimental: After 1 week-long acclimation period, animals were anaesthetised with 10% chloral hydrate (0.35 mL/100 g, i.p.) and nephrectomy was exercised to the left kidney. One week later, a single dose of 1% of streptozocin solution was i.v. injected to all animals at 60 mg/kg. After 72h, blood was collected from eyepit to test blood glucose level with the above-mentioned kit. The model was considered successful when blood glucose level >16.7 mmol/L. When the model is established, 130 rats were randomly divided into 13 groups, with 10 animals in each group, namely, a normal control group, a model group, benzanapril p.o. Group at 10 mg/kg, RA i.v. groups at 2.5 mg/kg, 5 mg/kg, 25 mg/kg, 75 mg/kg, and 150 mg/kg of RA, and RA p.o. groups at 5 mg/kg, 10 mg/kg, 50 mg/kg, 150 mg/kg, and 300 mg/kg of RA. The drugs were administered once every day. Blood was collected from eyepit at week 8 and week 16 to determine serum levels of creatinine and urea nitrogen. Urinary protein excretion within 24 hours was also studied. The animals were sacrificed 24 hours after the last dose and kidney removed for histopathological examination.

[2] = system: renal interstitial fibrosis in rats; experiment: Renal interstitial fibrosis in rats with unilateral urethral obstruction; conditions: day 10
Experimental: 130 rats were randomly divided into 13 groups, namely, a sham operation group, a model group, benazapril p.o. Group at 10 mg/kg, RA i.v. groups at 2.5 mg/kg, 5 mg/kg, 25 mg/kg, 75 mg/kg, and 150 mg/kg of RA, and RA p.o. groups at 2.5 mg/kg, 5 mg/kg, 25 mg/kg, 150 mg/kg, and 300 mg/kg of RA. The animals were acclimated for a week before they were all anaesthetised with an i.p. dose of 10% chloral hydrate at 3.0mL/kg and placed on the operating table in right lateral position. The rats were shaved and the operating area was disinfected using iodine tincture and 75% ethanol. The left urethra was exposed and isolated after a left lateral incision was made on the abdominal area and skin, muscles and all other layers of the abdominal wall were incised sequentially. In the sham group, the left urethra was only isolated without being ligated or cut off. In all other animals, the left urethra was ligated with No. 4 suture and obstructed followed by closure of the abdominal wall layer by layer. The animals were anaesthetised again with 10% chloral hydrate 10 days later, blood was collected and serum was separated to determine FN levels. The left kidney was removed after thorough rinsing and then fixed in 4% paraformaldehyde buffer. HYP level was determined according to instructions provided with the kit.

[3] = system: CRF rats; experiment: CRF induced by 5/6 nephrectomy in rats; conditions: 8 weeks; p.o. 12 mg/kg
Experimental: 130 rats were randomly divided into 13 groups, with 10 animals in each group, namely, a normal control group, a model group, methylprednisolone p.o. Group at 12 mg/kg, RA i.v. groups at 2.5 mg/kg, 5 mg/kg, 25 mg/kg, 75 mg/kg, and 150 mg/kg of RA, and RA p.o. groups at 5 mg/kg, 10 mg/kg, 50 mg/kg, 150 mg/kg, and 300 mg/kg of RA. Apart from the normal control group, all other rats were induced to CRF by cutting off 5/6 of the kidneys. 2/3 of the left kidney was removed in the first operation, and one week later the right kidney in the second operation. Dosing started one week after the second operation via p.o. or i.p. routes. Blood was collected from eyepit at week 4 and week 8 to determine creatinine and urea nitrogen levels in sera. 5 animals in each group were sacrificed at week 4 and […] were sacrificed at the end of the study. Pathological changes in renal function were observed through HE and PAS staining of histopathological sections.

[4] = system: CRF rats; experiment: CRF induced by 5/6 nephrectomy in rats; conditions: p.o. 12 mg/kg
[5] = system: hepatofibrosis in rats; experiment: CCl4-induced hepatofibrosis in chronic hepatitis in rats; conditions: hepatic; 8 mg/kg, 6 weeks
Experimental: 120 rats were randomly divided into 12 groups, with 10 in each group, namely, a normal control group, a model group, […] Apart from the normal control group, all rats were s.c. injected 0.3 ml of 40% solution of CC14 in oil per 100 g of body weight once every 3 days for 6 weeks. Animals in the normal control group were s.c. injected 0.3 ml/100 g body weight of oil vehicle following the same schedule as the experimental groups. First dose was doubled for all animals. Six weeks later, drugs were continuously administered to animals in each group for 6 weeks. After the administration was completed, all animals were anaesthetised with i.p. injection of 20% ethyl carbamate solution (Beijing Tongxian District Yucai Fine Chemicals). Blood was collected from abdominal aorta. Hepatic lobule tissue was removed, part of which was fixed with 10% neutral foinialin solution and made into wax blocks within 24-48 hours. […] Serum HA, LN, Pc III levels and hepatic HYP level were determined according to the respective kit instructions.

`CCOC(=O)[C@H](CCc1ccccc1)N[C@H]1CCc2ccccc2N(CC(=O)O)C1=O` [Benazapril, reference compound] was tested, and the “24 h urinary protein excretion” value ([1]; 8 weeks) was 19.29 ± 2.11 mg/24 h, the Blood glucose ([1]; 8 weeks) was 21.11 ± 4.55 mmol/L and the Serum urea nitrogen ([1]; 8 weeks) was 9.21 ± 1.62 mg/dL. The “24 h urinary protein excretion” value ([1]; 16 weeks) was 61.76 ± 6.75 mg/24 h, the Blood glucose ([1]; 16 weeks) was 22.11 ± 4.55 mmol/L and the Serum urea nitrogen ([1]; 16 weeks) was 18.21 ± 3.25 mg/dL. For the same molecule, the creatinine ([1]; 8 weeks) was 0.57 ± 0.07 mg/dL, the creatinine ([1]; 16 weeks) was 1.15 ± 0.13 mg/dL and the HYP ([2]; left kidney, benazapril p.o. 10 mg/kg) was 500 ± 132 µg/g. It also gave an FN ([2]; serum, p.o. 10 mg/kg) of 17.0 ± 3.6 mg/L.

Molecule `C[C@H]1C[C@@H]2[C@H]([C@@H](O)C[C@@]3(C)[C@H]2CC[C@]3(O)C(=O)CO)[C@@]2(C)C=CC(=O)C=C12` [Methylprednisolone, reference compound] has a Serum urea nitrogen [3] of 18.21 ± 4.25 mg/dL, a Serum creatinine ([4]; 4 weeks) of 1.33 ± 0.13 mg/dL and a Serum urea nitrogen ([4]; 4 weeks) of 15.21 ± 3.25 mg/dL. The Serum creatinine ([4]; 8 weeks) was 1.25 ± 0.17 mg/dL.

`CN(CCOc1ccc(CC2SC(=O)NC2=O)cc1)c1ccccn1` (stereo not drawn) [Rosiglitazone, reference compound] was tested, and the HYP [5] was 1259 ± 153 µg/L.

Source: patent publication US20100130604A1, “USE OF ROSMARINIC ACID IN MANUFACTURE OF MEDICAMENTS FOR TREATING OR PREVENTING HEPATIC AND RENAL DISEASES” (SHANGDONG LUYE NATURAL DRUG RESEARCH AND DEVELOPMENT CO., …, priority 2006, published 2010)
